The results in this text go back to patent US20240122180A1, “FUNGICIDAL HALOMETHYL KETONES AND HYDRATES AND THEIR MIXTURES” (FMC Corporation, priority 2020, published 2024).

Usually pest or weed control stands for the degree to which the test organism was suppressed or injured, in per cent. Read a high pest or weed control as a strong effect.

Test [1] has as its system Puccinia recondita f. sp. tritici (the causal agent of wheat leaf rust). In words: Test B: preventive spray on wheat seedlings, disease rating (100 = 100% control; * 50 ppm, ** 10 ppm, *** 250 ppm). In kind it is in vivo. The note with it: 100 = 100% disease control; for pest or weed control at 10 ppm / pest or weed control at 50 ppm: Puccinia recondita. From the text: (§1) General protocol for preparing test suspensions for Tests A-E: the test compounds were first dissolved in acetone in an amount equal to 3% of the final volume and then suspended at the desired concentration (in ppm) in acetone and purified water (50/50 mix by volume) containing 250 ppm of the surfactant […] (polyhydric alcohol esters). The resulting test suspensions were then used in Tests A-E.
The test solution was sprayed to the point of run-off on wheat seedlings. The following day the seedlings were inoculated with a spore suspension of Puccinia recondita f. sp. tritici (the causal agent of wheat leaf rust) and incubated in a saturated atmosphere at 20° C. for 24 h, and then moved to a growth chamber at 20° C. for 6 days, after which time disease ratings were made.
(§2) Results for Tests A-E are given in Table A. In the Table, a rating of 100 indicates 100% disease control and a rating of 0 indicates no disease control (relative to the controls). An asterisk “*” or a double asterisk “**” or a triple asterisk “***” next to the rating value indicates a 50 ppm, 10 ppm and 250 ppm test suspension was used, respectively. A dash (-) indicates the compound was not tested.

Test [2] concerns Phakopsora pachyrhizi (the causal agent of Asian soybean rust). In words: Test A: preventive spray on soybean seedlings, visual disease rating (100 = 100% control; * 50 ppm, ** 10 ppm, *** 250 ppm). The format is in vivo. The note with it: 100 = 100% disease control.
Source text: as §1
The test solution was sprayed to the point of run-off on soybean seedlings. The following day the seedlings were inoculated with a spore suspension of Phakopsora pachyrhizi (the causal agent of Asian soybean rust) and incubated in a saturated atmosphere at 22° C. for 24 h, and then moved to a growth chamber at 22° C. for 8 days, after which time visual disease ratings were made.
as §2

Setting [3] is: 10 ppm test suspension, 0 = no control.
Where [4] appears, read: 50 ppm test suspension, 0 = no control.
Setting [5] is: 10 ppm test suspension, wheat seedlings.
The mark [6] stands for this setting: 10 ppm test suspension, soybean seedlings.
Setting [7] is: 50 ppm test suspension, wheat seedlings.
[8] abbreviates: 50 ppm test suspension, soybean seedlings.

The structures appear in SMILES notation.

Consider `CCC#CCOC(=O)c1ccn(Cc2ccc(O/C=C(\OCC)C(F)(F)F)cc2)n1` [compound 326], for which the “Test B disease control rating” value in test [1] (setting [3]) worked out at 0%. For the same molecule, in test [2] (setting [3]), the “Test A disease control rating” value stood at 100%.

Take `CCOC(=O)c1cnn(COc2cccc(O/C=C(\OCC)C(F)(F)F)c2)c1` [compound 321]: the pest or weed control at 10 ppm in test [1] (setting [3]) was 0%; in test [2] (Phakopsora pachyrhizi, 10 ppm test suspension, 0 = no control) it was 100%.

In test [1] (setting [4]), `CCOC(=O)c1cnn(Cc2cccc(OCC(O)(O)C(F)(F)F)c2)c1` [Compound 266, ethyl 1-[[3-(3,3,3-trifluoro-2,2-dihydroxypropoxy)phenyl]methyl]-1H-pyrazole-4-carboxylate] registered a pest or weed control at 50 ppm of 74%.

In the case of `CCOC(=O)c1ccnn1Cc1ccc(OC=C(OCC)C(F)(F)F)cc1` [compound 241], in test [1] (setting [5]), the “Test B disease control rating” value came to 0%. The “Test A disease control rating” value in test [2] (setting [6]) worked out at 0%.

As for `O=C(NCC1CC1)c1cnn(Cc2ccc(OCC(O)(O)C(F)(F)F)cc2)c1` [compound 36], the “Test B disease control rating” value in test [1] (setting [5]) worked out at 0%. The “Test A disease control rating” value in test [2] (setting [6]) came out at 70%.

As for `COC(=O)c1ccc(OCC2(C(F)(F)F)OCCO2)cc1` [compound 189], the “Test B disease control rating” value in test [1] (setting [5]) came out at 0%. Moreover, the “Test A disease control rating” value in test [2] (setting [6]) came to 0%.

As for `CCOC(=O)c1cnn(Cc2ccc(F)c(O/C=C(\OCC)C(F)(F)F)c2)c1` [compound 418], the “Test B disease control rating” value in test [1] (setting [3]) came out at 0%. The “Test A disease control rating” value in test [2] (setting [3]) came to 0%.

Regarding `CON(Cc1ccc(OCC2(C(F)(F)F)OCCO2)cc1)C(=O)C1CC1` [compound 236], the “Test B disease control rating” value in test [1] (setting [5]) stood at 0%. The “Test A disease control rating” value in test [2] (setting [6]) came to 75%.

`CC(=O)COC(=O)c1cnn(Cc2ccc(OCC3(C(F)(F)F)OCCO3)cc2)c1` [compound 169]: the “Test B disease control rating” value in test [1] (setting [5]) was 0%. For the same molecule, in test [2] (setting [6]), the “Test A disease control rating” value was 100%.

With `CCOC(=O)c1cnn(CCc2ccc(OCC(O)(O)C(F)(F)F)cc2)c1` [compound 131], the “Test B disease control rating” value in test [1] (setting [7]) is 86%. The “Test A disease control rating” value in test [2] (setting [8]) amounted to 99%.

Turning to `O=Cc1ccc(OCC(O)(O)C(F)(F)F)cc1` [compound 177], the “Test B disease control rating” value in test [1] (setting [7]) was found to be 89%. The “Test A disease control rating” value in test [2] (setting [8]) is 100%.

`CC(C)COC(=O)c1cnn(Cc2ccc(OCC3(C(F)(F)F)OCCO3)cc2)c1` [Compound 126, 2-methylpropyl 1-[[4-[[2-(trifluoromethyl)-1,3-dioxolan-2-yl]methoxy]phenyl]methyl]-1H-pyrazole-4-carboxylate] had a pest or weed control at 10 ppm in test [1] (setting [5]) of 0%.

`CCCCCCOC(=O)c1cnn(Cc2ccc(OCC(O)(O)C(F)(F)F)cc2)c1` [compound 48]: the “Test B disease control rating” value in test [1] (setting [7]) turned out to be 91%. Besides, the “Test A disease control rating” value in test [2] (setting [8]) came out at 100%.

Turning to `CCOC(=COc1ccc(COC)cc1)C(F)(F)F` [compound 433], the “Test B disease control rating” value in test [1] (setting [4]) is given as 0%. The “Test A disease control rating” value in test [2] (setting [4]) was found to be 0%.

For `COC(=O)c1cnn(Cc2ccc(OCC(O)(O)C(F)(F)F)cc2)c1` [compound 37], in test [1] (setting [5]), the “Test B disease control rating” value was found to be 86%. Besides, the “Test A disease control rating” value in test [2] (setting [6]) is 99%.

With `CCO/C(=C\Oc1ccc(S(=O)(=O)N(C)C)cc1)C(F)(F)F` [compound 61], the “Test B disease control rating” value in test [1] (setting [5]) is 0%. The “Test A disease control rating” value in test [2] (setting [6]) is 0%.

Consider `CCCCCCOC(=O)c1cnn(Cc2ccc(OCC3(C(F)(F)F)OCCO3)cc2)c1` [compound 16], for which, in test [1] (setting [5]), the “Test B disease control rating” value amounted to 0%. In addition, the “Test A disease control rating” value in test [2] (setting [6]) is reported as 99%.

With `O=C(NCc1ccc(OCC2(C(F)(F)F)OCCO2)cc1)C1CC1` [compound 176], the “Test B disease control rating” value in test [1] (setting [5]) is listed as 0%. Further, the “Test A disease control rating” value in test [2] (setting [6]) is 0%.

In the case of `OC(O)(COc1cccc(CCl)c1)C(F)(F)F` [compound 423], the pest or weed control at 50 ppm in test [1] (setting [4]) amounted to 80%; in test [2] (Phakopsora pachyrhizi, 50 ppm test suspension, 0 = no control) it was 87%.

With `CCO/C(=C\Oc1ccc(CN)cc1)C(F)(F)F` [compound 110], the “Test B disease control rating” value in test [1] (setting [7]) came to 0%. In addition, in test [2] (setting [8]), the “Test A disease control rating” value is reported as 79%.

Consider `CCNC(=O)c1cnn(Cc2cccc(O/C=C(\OCC)C(F)(F)F)c2)c1` [compound 343], for which the “Test B disease control rating” value in test [1] (setting [3]) came to 0%. For the same molecule, in test [2] (setting [3]), the “Test A disease control rating” value came out at 0%.

`CN(C)C(=O)C1=NOC(c2ccc(OCC3(C(F)(F)F)OCCO3)cc2)C1` (centres unmarked) [compound 22]: the “Test B disease control rating” value in test [1] (setting [5]) is reported as 0%. In test [2] (setting [6]), the “Test A disease control rating” value was 38%.

The molecule `CCOC(=O)c1cnn(Cc2cccc(OCC3(C(F)(F)F)OCCO3)c2)c1` [compound 146] showed a pest or weed control at 50 ppm in test [1] (setting [7]) of 0%.

For `CCO/C(=C\Oc1cccc(Cn2cc(C(=O)NC3CC3)cn2)c1)C(F)(F)F` [compound 391], the “Test A disease control rating” value in test [2] (setting [4]) was determined as 0%.

In turn, `N#Cc1cccc(OCC2(C(F)(F)F)OCCO2)c1` [compound 147] had a pest or weed control at 50 ppm in test [1] (setting [7]) of 0%.

`COCCOC(=O)c1cnn(Cc2ccc(OCC3(C(F)(F)F)OCCO3)cc2)c1` [Compound 162, 2-methoxyethyl 1-[[4-[[2-(trifluoromethyl)-1,3-dioxolan-2-yl]methoxy]phenyl]methyl]-1H-pyrazole-4-carboxylate] displayed a pest or weed control at 10 ppm in test [1] (setting [5]) of 0%.

As for `CCOC(=O)c1cnn(Cc2ccc(O/C=C(\OCC)C(F)(F)F)c(F)c2)c1` [Compound 262, ethyl 1-[[4-[[(1Z)-2-ethoxy-3,3,3-trifluoro-1-propen-1-yl]oxy]-3-fluorophenyl]methyl]-1H-pyrazole-4-carboxylate], the pest or weed control at 10 ppm in test [1] (setting [3]) is 0%.

Regarding `CCOC(=O)c1cnn(CCc2ccc(O/C=C(\OCC)C(F)(F)F)cc2)c1` [Compound 132, ethyl 1-[2-[4-[[(1Z)-2-ethoxy-3,3,3-trifluoro-1-propen-1-yl]oxy]phenyl]ethyl]-1H-pyrazole-4-carboxylate], the pest or weed control at 10 ppm in test [1] (setting [5]) came out at 0%.

For `CCCOC(=O)c1cnn(Cc2cccc(O/C=C(\OCC)C(F)(F)F)c2)c1` [Compound 331, propyl 1-[[3-[[(1Z)-2-ethoxy-3,3,3-trifluoro-1-propen-1-yl]oxy]phenyl]methyl]-1H-pyrazole-4-carboxylate], the pest or weed control at 10 ppm in test [1] (setting [3]) worked out at 0%.

Turning to `CCO/C(=C\Oc1cccc(Cn2cc(C(=O)OC)cn2)c1)C(F)(F)F` [Compound 330, methyl 1-[[3-[[(1Z)-2-ethoxy-3,3,3-trifluoro-1-propen-1-yl]oxy]phenyl]methyl]-1H-pyrazole-4-carboxylate], the pest or weed control at 10 ppm in test [1] (setting [3]) is 0%.

In turn, `CCOC(=O)c1cnn(Cc2ccc(OCC3(C(F)(F)F)OCC(C)(C)O3)cc2)c1` (centres unmarked) [Compound 12, ethyl 1-[[4-[[4,4-dimethyl-2-(trifluoromethyl)-1,3-dioxolan-2-yl]methoxy]-phenyl]methyl]-1H-pyrazole-4-carboxylate] gave a pest or weed control at 10 ppm in test [1] (setting [5]) of 0%.

Take `O=[N+]([O-])c1cccc(OCC2(C(F)(F)F)OCCO2)c1` [compound 165]: the pest or weed control at 10 ppm in test [1] (setting [5]) worked out at 0%.

On to `CCO/C(=C\Oc1cccc(Cn2cc(C(=O)NC3CCCC3)cn2)c1)C(F)(F)F` [compound 390], for which, in test [2] (setting [4]), the “Test A disease control rating” value is given as 0%.

In test [1] (setting [3]), `O=Cc1cccc(OCC(O)(O)C(F)(F)F)c1` [compound 305] yielded a pest or weed control at 10 ppm of 0%.

In the case of `O=C(OCC1CC1)c1cnn(Cc2ccc(OCC3(C(F)(F)F)OCCO3)cc2)c1` [Compound 127, cyclopropylmethyl 1-[[4-[[2-(trifluoromethyl)-1,3-dioxolan-2-yl]methoxy]phenyl]methyl]-1H-pyrazole-4-carboxylate], in test [1] (setting [5]), the pest or weed control at 10 ppm came out at 0%.

The molecule `N#CCCCOC(=O)c1cnn(Cc2ccc(OCC3(C(F)(F)F)OCCO3)cc2)c1` [Compound 171, 3-cyanopropyl 1-[[4-[[2-(trifluoromethyl)-1,3-dioxolan-2-yl]methoxy]phenyl]methyl]-1H-pyrazole-4-carboxylate] had a pest or weed control at 10 ppm in test [1] (setting [5]) of 0%.

With `CC#CCOC(=O)c1cnn(Cc2ccc(OCC3(C(F)(F)F)OCCO3)cc2)c1` [Compound 163, 2-butyn-1-yl 1-[[4-[[2-(trifluoromethyl)-1,3-dioxolan-2-yl]methoxy]phenyl]methyl]-1H-pyrazole-4-carboxylate], the pest or weed control at 10 ppm in test [1] (setting [5]) is 0%.

In test [1] (setting [5]), `CCOC(=O)c1ccn(Cc2ccc(O/C=C(\OCC)C(F)(F)F)cc2)n1` [Compound 231, ethyl 1-[[4-[[(1Z)-2-ethoxy-3,3,3-trifluoro-1-propen-1-yl]oxy]phenyl]methyl]-1H-pyrazole-3-carboxylate] registered a pest or weed control at 10 ppm of 0%.

Take `CCOC(=O)c1cnn(COCc2ccc(O/C=C(\OCC)C(F)(F)F)cc2)c1` [Compound 297, ethyl 1-[[4-[[(1Z)-2-ethoxy-3,3,3-trifluoro-1-propen-1-yl]oxy]phenylmethoxy]methyl]-1H-pyrazole-4-carboxylate]: in test [1] (setting [3]), the pest or weed control at 10 ppm is 0%.
